{
  "source": "patent US20090305963A1",
  "about": "“Lipocalin 2 for the Treatment, Prevention, and Management of Cancer Metastasis, Angiogenesis, and Fibrosis” (priority 2005, published 2009)",
  "key": {"E-cadherin [1]": {"system": "E-cadherin", "experiment": "EMT phenotype, E-cadherin and vimentin protein in 4T1 clones (microscopy, western blot)", "type": "cell-based, mouse", "settings": "for rank order of effect on R cell epithelial morphology and E-cadherin expression: R cells, 15 or 50 μg/ml, dose dependent", "text": "(§1) Cells were stained as described previously (Mammoto et al., Cancer Lett. 184:165-170, 2002) and images acquired with a Delta Vision system (Applied Precision, Issaquah, Wash.) equipped with an Axiovert 100 microscope (Carl Zeiss MicroImaging Inc., Shelton, Conn.) and a Photometrics 300 series scientific-grade cooled CCD camera, reading 12-bit images, and using the 63/1.4 NA plan-Neofluar objective. For immunoprecipitation and immunoblotting, tissues were weighed, diced, soaked in ice cold RIPA buffer with 1 mM phenylmethylsulfonyl fluoride (PMSF), 1 μg/ml Aprotinin, 1 mM Na3VO4, 1 nM NaF, homogenized on ice, centrifuged at 10,000 g for 10 minutes at 4° C., and the supernatant fluid collected as total cell lysate. Cultured cells were washed, scraped, and solubilized in a lysis buffer containing 20 mM Tris-HCl pH 7.5, 150 mM NaCl, 0.5% Triton X-100, 1% aprotinin, and 1 mM PMSF. After 20 minutes on ice, the cells were pelleted by centrifugation and the supernatants were used as a cell lysate. Cell lysates or immunoprecipitated cell lysates were separated by PAGE (NuPAGE® gels; Invitrogen, Carlsbad, Calif.), followed by electroblotting onto a polyvinylidenedifluoride membrane (PVDF). Protein bands were detected using SuperSignal® West Pico Chemiluminescent Substrate (Pierce Chemical Co., Rockford, Ill.) (Hanai et al., J. Cell. Biol. 158:529-539, 2002).\nTo assess the effects of lipocalin 2 on ras-mediated transformation, we chose a syngeneic spontaneously metastasizing murine breast cancer model (4T1 cell line) and accelerated its metastatic potential by introduction of constitutively active mouse H-ras mutant A12 using retrovirus. […] We generated stable clones of 4T1-ras cells expressing lipocalin 2 (RL) by transfection of a lipocalin 2 expression plasmid (lipocalin 2-pcDNA3.1). […] (FIG. 2A, lower panel, and FIG. 2B). […] Expression of E-cadherin in RL cells was dependent on the dose of lipocalin 2-pcDNA3.1 expression vector (transiently introduced in a population of R cells), on a conditioned medium containing lipocalin 2 (FIGS. 2D-E), as well as on recombinant lipocalin 2 protein. R cells shown in FIG. 2D were seeded in a 6-well plate and transfected with lipocalin 2 by FuGene 6 at 40% confluency. After 48 hours, cells were trypsinized, respread on 6-well plate, and transfected again in the same conditions. After 72 hours, cells were harvested and analyzed by western blotting. EV cells in FIG. 2E were seeded in a 6-well plate with 1 ml/well containing 10% FCS with DMEM and 2 ml of CM was added at 10% confluency. After 72 hours, cells were harvested and analyzed by western blotting. CM is a mixture of media from 293T cells transfected with lipocalin 2 and from 293 cells transfected with empty vector (pcDNA3.1)."}, "VEGF": {"system": "VEGF", "experiment": "Measurement of VEGF levels by ELISA in conditioned media of 4T1 cells", "type": "cell-based, mouse", "settings": "R cells; 2 days of incubation; dose dependent", "protocol": "Conditioned media of 4T1 cells were collected after 2 days of incubation. Murine VEGF levels were determined in duplicate using a commercially available sandwich ELISA kit (R&D Systems, Minneapolis, Minn.), with a affinity purified polyclonal antibody specific for mouse VEGF has been pre-coated onto a microplate. Results were compared with a standard curve of mouse VEGF with a lower detection limit of 7 pg/mL. A model 680 microplate-reader (Bio-Rad Laboratories, CA) was used to measure light intensity correlating with VEGF binding."}, "E-cadherin [2]": {"system": "E-cadherin", "experiment": "E-cadherin phosphorylation (immunoprecipitation and western blot)", "type": "cell-based, mouse", "settings": "R cells vs RL cells or R cells with inhibitor", "text": "as §1"}, "E-cadherin [3]": {"system": "E-cadherin", "experiment": "Induction of E-cadherin in embryonic mesenchyme", "type": "cell-based, rat", "settings": "enterochelin siderophore complex with gallium instead of iron"}, "[4]": {"system": "serum-response element (SRE)", "experiment": "SRE-luciferase assay", "type": "cell-based, mouse", "protocol": "After transient transfection of the plasmids, cells were incubated for 20 hours in 10% FCS and luciferase activity in the cell lysates was determined using a luminometer normalized by sea-pansy luciferase activity under the control of the thymidine kinase promoter. The Dual-Luciferase Reporter Assay System was purchased from Promega (Madison, Wis.) (Hanai et al., J. Biol. Chem. 277:16464-16469, 2002).\nFor these experiments, EV and R cells were starved in DMEM without serum for 48 hours. During this time, half of the R cells were incubated with 50 μg/ml of lipocalin 2 protein with iron-loaded siderophore (R+Lipo:Sid:Fe), after which all cells were incubated with 10% FCS containing DMEM for 20 minutes and then harvested for western blotting with phosphospecific antibodies. Signaling events downstream of ERK activation were then monitored with a multi-copy serum-response element (SRE)-luciferase construct introduced into EV, R, and RL (FIG. 6B). For these experiments, an SRE-luciferase assay was performed on 4T1 clones after the 48 hour incubation in serum free DMEM. […] Just like R cells treated with exogenous protein (FIG. 6A), R cells infection with recombinant adenovirus carrying lipocalin 2, but not GFP, reduced SRE-luciferase activity, MEK, and ERK1/2 phosphorylation, without altering ras expression.\nTo localize the effect of lipocalin on ras-MAPK signaling, we utilized an adenovirus and expression plasmid encoding a constitutively active MEK (MEK-DD) (Murakami et al., Cell Growth Differ 10:333-342, 1999). MEK-DD adenoviral infection of EV cells led to increased SRE-luciferase activity (increased MAPK activity). […] RL cells in a 6-well plate were infected with an adenovirus carrying the MEK dominant active form (MEK-DD) and a Lac-Z adenovirus at the indicated multiplicities (MOI) in 2% serum including DMEM medium for 48 hours. Cells were then trypsinized, respread on 6-well plate at 5-10% confluency, and incubated with 10% serum including DMEM medium. Cell lysates were collected for western blotting 48 hours after the final plating (FIG. 6D). […]"}, "raf, MEK, and ERK1/2": {"system": "raf, MEK, and ERK1/2", "experiment": "Western blots with phosphospecific antibodies for ras-MAPK signaling molecules", "type": "cell-based, mouse", "settings": "R cells", "text": "as §1, with “After 20 minutes on ice, the cells were pelleted by centrifugation and the supernatants were used as a cell lysate. Cell lysates or immunoprecipitated cell lysates were separated by PAGE (NuPAGE® gels; Invitrogen, Carlsbad, Calif.), followed by electroblotting onto a polyvinylidenedifluoride membrane (PVDF).” left out\nFor these experiments, EV and R cells were starved in DMEM without serum for 48 hours. […] Signaling events downstream of ERK activation were then monitored with a multi-copy serum-response element (SRE)-luciferase construct introduced into EV, R, and RL (FIG. 6B). […]"}},
  "note": "Counter-ions that a name gives are not always drawn. Where a SMILES comes first, the peptide text is derived from it. The star is where a group is joined. Cbz = O=C(OCc1ccccc1)*",
  "data": [
    {"molecule": "CC(=O)N(O)CCCCCNC(=O)CCC(=O)N(O)CCCCCNC(=O)CCC(=O)N(O)CCCCCN", "note": "[DFO, Deferoxamine mesylate]", "values": [
      {"measurement": "E-cadherin expression in RL cells", "setting": "E-cadherin [1]; 2-5 μM, 48 hours", "value": "suppressed E-cadherin expression"},
      {"measurement": "morphology of RL cells", "setting": "E-cadherin [1]; 2-5 μM, 48 hours", "value": "changed the morphology of RL cells to a mesenchymal phenotype"}
    ]},
    {"molecule": "O=c1cc(N2CCOCC2)oc2c(-c3ccccc3)cccc12", "note": "[LY294002]", "values": [
      {"measurement": "maximum inhibition of VEGF production, each inhibitor alone", "setting": "VEGF", "value": "approximately 50%"}
    ]},
    {"molecule": "CC(C)C[C@@H](C=O)NC(=O)[C@H](CC(C)C)NC(=O)[C@H](CC(C)C)NC(=O)OCc1ccccc1", "note": "[MG132] (Cbz-Leu-Leu-Leu-aldehyde)", "values": [
      {"measurement": "E-cadherin protein in EV cells", "setting": "E-cadherin [1]; 0.5 nM for 2 days", "value": "increased E-cadherin protein"},
      {"measurement": "E-cadherin protein in R cells", "setting": "E-cadherin [1]; 0.5 nM for 2 days", "value": "increased E-cadherin protein"},
      {"measurement": "E-cadherin protein in RL cells", "setting": "E-cadherin [1]; 0.5 nM for 2 days", "value": "only slightly increased E-cadherin"},
      {"measurement": "phenotype of R cells", "setting": "E-cadherin [1]; 0.5 nM for 48 hours", "value": "reverted R cells to an epithelial phenotype"}
    ]},
    {"molecule": "N#CC(=C(/N)Sc1ccccc1N)/C(C#N)=C(\\N)Sc1ccccc1N", "note": "[U0126]", "values": [
      {"measurement": "maximum inhibition of VEGF production, each inhibitor alone", "setting": "VEGF", "value": "approximately 50%"},
      {"measurement": "E-cadherin phosphorylation", "setting": "E-cadherin [2]", "value": "markedly downregulated"},
      {"measurement": "effect on ras-induced EMT", "setting": "E-cadherin [1]", "value": "reversed ras-induced EMT"}
    ]},
    {"molecule": "O=S(=O)([O-])[O-].O=S(=O)([O-])[O-].[Fe+3].[NH4+]", "note": "[ferric ammonium sulfate]", "values": [
      {"measurement": "phenotype of R cells after adding iron", "setting": "E-cadherin [1]; 50 μM", "value": "did not change their phenotype"}
    ]},
    {"molecule": "[Ga]", "note": "[gallium]", "values": [
      {"measurement": "induction of E-cadherin in mesenchyme when iron is substituted", "setting": "E-cadherin [3]", "value": "greatly diminished"}
    ]},
    {"molecule": "Lipo:Sid:Fe: recombinant mouse lipocalin 2 mixed with iron-loaded bacterial siderophore enterochelin (protein, UniProt P11672 21-200, looked up, iron-loaded enterochelin siderophore complex, recombinant mouse lipocalin 2 mixed with iron-loaded bacterial siderophore enterochelin) Neutrophil …: QDSTQNLIPAPSLLTVPLQPDFRSDQFRGRWYVVGLAGNAVQKKTEGSFTMYSTIYELQENNSYNVTSILVRDQDQGCRYWIRTFVPSSRAGQFTLGNMHRYPQVQSYNVQVATTDYNQFAMVFFRKTSENKQYFKITLYGRTKELSPELKERFTRFAKSLGLKDDNIIFSVPTDQCIDN", "values": [
      {"measurement": "rank order of effect on R cell epithelial morphology and E-cadherin expression", "setting": "E-cadherin [1]", "value": "Lipo:Sid:Fe>Lipo:Sid>Lipo"},
      {"measurement": "SRE-luciferase activity induced by CA-H-ras", "setting": "[4]; EV cells transfected with H-ras V12", "value": "downregulated SRE-luciferase activity"},
      {"measurement": "inhibition of MEK-DD induced SRE-luciferase activity", "setting": "[4]; EV cells transfected with MEK-DD", "value": "unable to inhibit this effect"},
      {"measurement": "total ras expression", "setting": "raf, MEK, and ERK1/2; 50 μg/ml for 48 hours", "value": "unchanged"},
      {"measurement": "ras induced phosphorylation of raf, MEK, and ERK1/2", "setting": "raf, MEK, and ERK1/2; 50 μg/ml for 48 hours serum free, then 10% FCS 20 minutes", "value": "largely abrogated"}
    ]},
    {"molecule": "Lipo:Sid: recombinant mouse lipocalin 2 mixed with iron-unloaded bacterial siderophore enterochelin (protein, UniProt P11672 21-200, looked up, iron-free enterochelin siderophore, recombinant mouse lipocalin 2 mixed with iron-unloaded bacterial siderophore enterochelin) Neutrophil …: QDSTQNLIPAPSLLTVPLQPDFRSDQFRGRWYVVGLAGNAVQKKTEGSFTMYSTIYELQENNSYNVTSILVRDQDQGCRYWIRTFVPSSRAGQFTLGNMHRYPQVQSYNVQVATTDYNQFAMVFFRKTSENKQYFKITLYGRTKELSPELKERFTRFAKSLGLKDDNIIFSVPTDQCIDN", "values": [
      {"measurement": "rank order of effect on R cell epithelial morphology and E-cadherin expression", "setting": "E-cadherin [1]", "value": "Lipo:Sid:Fe>Lipo:Sid>Lipo"}
    ]},
    {"molecule": "Lipo: recombinant mouse lipocalin 2 protein expressed in E. coli BL21, without siderophore (protein, UniProt P11672 21-200, looked up) Neutrophil …: QDSTQNLIPAPSLLTVPLQPDFRSDQFRGRWYVVGLAGNAVQKKTEGSFTMYSTIYELQENNSYNVTSILVRDQDQGCRYWIRTFVPSSRAGQFTLGNMHRYPQVQSYNVQVATTDYNQFAMVFFRKTSENKQYFKITLYGRTKELSPELKERFTRFAKSLGLKDDNIIFSVPTDQCIDN", "values": [
      {"measurement": "rank order of effect on R cell epithelial morphology and E-cadherin expression", "setting": "E-cadherin [1]", "value": "Lipo:Sid:Fe>Lipo:Sid>Lipo"}
    ]}
  ]
}
